Usually AC50 stands for the midpoint of the concentration-response curve, whichever way the signal moves. What is called EC50 is the midpoint of the concentration-response curve. A word on the IC50: it is the concentration at which inhibition is half-maximal.

In one assay the target is Trypsin (Sus scrofa, UniProt P00761). Kind of assay: porcine trypsin inhibitors, dose response, selectivity assay for Rce1 protease inhibitor project, biochemical, quenched peptide fluorescence, cherry-pick (AID 488789).
In assay [1] the target is CAAX prenyl protease 2 (Homo sapiens, UniProt Q9Y256). Kind of assay: human Rce1 protease inhibitors, dose response, biochemical, yeast membranes, quenched-peptide fluorescence, cherry-pick (AID 588849).
In assay [2] the target is ATP-dependent molecular chaperone HSP82 (Candida albicans (strain WO-1) (Yeast), UniProt C4YTQ8). Kind of assay: loss of DOC-induced GRE-beta-galactosidase reporter signal, dose response, Hsp90 inhibitor project, S. cerevisiae, luminescence (AID 2400).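 Note: beta-galactosidase luminescence from glucocorticoid response element reporter as proxy for Hsp90 function; inhibitor potency where signal loss means Hsp90 inhibition.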 In kind it is functional, cell-based.
The nature of assay [3]: NIH-3T3 fibroblast cytotoxicity, dose response, cytotoxicity control, cell-based, fluorescence, Alamar Blue, secondary assay (AID 2327).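 Note: NIH-3T3 mouse fibroblasts cultured with fluconazole at 8 µg/mL.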 It counts as functional. For orientation: Alamar Blue is a resazurin reagent that responds to reducing activity.
Assay [4] can be described thus: C. albicans growth with fluconazole, confirmation, fluorescence, retest (AID 2467). It counts as functional, cell-based.
For assay [5], the target named is Serine/threonine-protein phosphatase (Candida dubliniensis (strain CD36 / CBS 7987 / NCPF 3949 / NRRLY-17841) (Yeast), UniProt B9W6M3). Kind of assay: calcineurin pathway inhibitors in yeast reporter, dose response, S. cerevisiae, CDRE-lacZ, luminescence, secondary (AID 2388).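 Note: yeast reporter cells carrying a calcineurin-responsive lacZ construct stimulated with calcium chloride; luminescent beta-galactosidase reporter signal in whole cells rather than isolated phosphatase activity; potency for inhibition where a drop in reporter signal means calcineurin blockade.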 It counts as functional, cell-based.
A short description of assay [6]: Luminescence Cell-Based Dose Confirmation HTS to Identify Activators of 5'UTR Stem-Loop Driven Alpha-Synuclein mRNA Translation in H4 Neuroglioblastoma Cells. [Related pubchem assays: 1829 (Project Summary), 1814 (Primary HTS)]. It counts as functional.
A short description of assay [7]: Luminescence Cell-Based Dose Response HTS to Identify Activators of Luciferase Translation or Activity in H4 […] Cells. [Related pubchem assays: 1829 (Project Summary), 1814 (Primary HTS)]. It counts as functional.
In a further assay the test system is HeLa. Description: HeLa cell cytotoxicity, dose response, cytotoxicity control for MITF activator project, CellTiter-Glo luminescence, cherry-pick samples (AID 540259). It counts as functional, cell-based. Conditions: Homo sapiens. A general note: In ATP-based viability assays light output follows the ATP content of the culture.
A further assay deals with H4. Kind of assay: Luminescence Cell-Based Dose Response HTS to Identify Activators of 5'UTR Stem-Loop Driven Prion Protein mRNA Translation in H4 Neuroglioblastoma Cells. [Related pubchem assays: 1829 (Project Summary), 1814 (Primary HTS)]. In kind it is functional. The conditions noted are these: Homo sapiens.
Assay [8] deals with HEK293. Description: cells. In kind it is functional, cell-based. Conditions: Homo sapiens.
The target in assay [9] is T1, Nuclear receptor subfamily 0 group B member 1 (Homo sapiens, UniProt P51843).
T1 sequence (P51843 whole entry): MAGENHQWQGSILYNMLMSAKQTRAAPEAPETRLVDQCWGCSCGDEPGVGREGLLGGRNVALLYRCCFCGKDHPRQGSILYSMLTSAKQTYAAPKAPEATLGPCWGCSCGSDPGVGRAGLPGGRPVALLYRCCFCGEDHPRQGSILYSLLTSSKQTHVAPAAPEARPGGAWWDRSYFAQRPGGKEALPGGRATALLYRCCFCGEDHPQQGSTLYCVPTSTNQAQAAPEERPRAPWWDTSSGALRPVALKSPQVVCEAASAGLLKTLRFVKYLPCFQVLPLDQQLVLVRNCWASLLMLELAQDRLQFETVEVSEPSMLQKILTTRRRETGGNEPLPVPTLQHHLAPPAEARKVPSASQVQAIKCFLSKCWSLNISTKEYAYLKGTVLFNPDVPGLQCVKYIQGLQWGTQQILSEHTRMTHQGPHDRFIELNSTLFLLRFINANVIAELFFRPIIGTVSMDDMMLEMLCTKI
Kind of assay: Luminescence-based cell-based high throughput dose response assay for inhibitors of the orphan nuclear receptor subfamily 0, group B, member 1 (DAX1; NR0B1). [Related pubchem assays (depositor defined):AID504766, AID504790]. In kind it is functional.

The target in assay [10] is T2, CAAX prenyl protease 2 (Saccharomyces cerevisiae S288c, UniProt Q03530).
T2 sequence (Q03530 whole entry): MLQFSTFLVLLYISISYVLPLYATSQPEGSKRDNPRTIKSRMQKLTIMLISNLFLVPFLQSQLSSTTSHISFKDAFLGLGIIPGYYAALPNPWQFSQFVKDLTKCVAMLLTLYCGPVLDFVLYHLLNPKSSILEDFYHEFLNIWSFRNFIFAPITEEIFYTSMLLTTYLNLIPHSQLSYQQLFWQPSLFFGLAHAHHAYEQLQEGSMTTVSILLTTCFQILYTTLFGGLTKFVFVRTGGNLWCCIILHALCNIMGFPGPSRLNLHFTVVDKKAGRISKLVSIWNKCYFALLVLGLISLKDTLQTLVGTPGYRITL
It counts as biochemical.

The next assay has as its target T3, Protein RecA (Mycobacterium tuberculosis, UniProt P9WHJ3).
T3 sequence (P9WHJ3 whole entry): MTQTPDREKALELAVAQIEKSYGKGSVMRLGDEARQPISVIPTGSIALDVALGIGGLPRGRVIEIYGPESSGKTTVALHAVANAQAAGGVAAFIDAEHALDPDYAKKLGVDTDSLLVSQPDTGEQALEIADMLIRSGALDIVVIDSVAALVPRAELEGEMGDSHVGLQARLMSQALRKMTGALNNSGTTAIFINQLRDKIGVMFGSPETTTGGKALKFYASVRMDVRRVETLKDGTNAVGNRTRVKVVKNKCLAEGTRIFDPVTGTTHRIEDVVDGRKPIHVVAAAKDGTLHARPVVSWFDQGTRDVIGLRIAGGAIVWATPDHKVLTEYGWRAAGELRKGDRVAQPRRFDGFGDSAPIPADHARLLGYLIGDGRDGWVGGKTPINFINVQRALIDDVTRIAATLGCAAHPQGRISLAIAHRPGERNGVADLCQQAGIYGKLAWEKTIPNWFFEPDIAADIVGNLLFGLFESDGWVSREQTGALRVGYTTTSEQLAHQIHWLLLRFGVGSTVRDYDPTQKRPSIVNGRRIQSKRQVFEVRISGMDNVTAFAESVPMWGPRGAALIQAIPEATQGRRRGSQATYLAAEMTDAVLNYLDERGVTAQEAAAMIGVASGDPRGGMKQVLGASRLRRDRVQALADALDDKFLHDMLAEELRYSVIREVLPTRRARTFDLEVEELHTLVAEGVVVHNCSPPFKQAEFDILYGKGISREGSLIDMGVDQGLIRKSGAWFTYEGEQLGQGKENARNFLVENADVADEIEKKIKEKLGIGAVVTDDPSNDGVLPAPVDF
Kind of assay: Fluorescence Cell-Free Homogeneous Dose Retest to Identify Inhibitors of RecA-Intein Splicing Activity. [Related pubchem assays (depositor defined):AID2097, AID2223, AID489010, AID492950]. It counts as functional.

Assay [11] has as its system HEK293. Kind of assay: cells. The conditions noted are these: Homo sapiens.
The target of another assay is Large T antigen (Simian virus 40, UniProt P03070). It counts as functional, Betapolyomavirus macacae.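 Note: Confirmatory-stage PubChem screen for compounds that inhibit SV40 T antigen.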
In assay [12] the test system is HEK293. Description: cells. The conditions noted are these: Homo sapiens. The source holds these as a separate data set.
For assay [13], the target named is T4, Replicative DNA helicase DnaB (Mycobacterium tuberculosis, UniProt P9WMR3).
T4 sequence (P9WMR3 whole entry): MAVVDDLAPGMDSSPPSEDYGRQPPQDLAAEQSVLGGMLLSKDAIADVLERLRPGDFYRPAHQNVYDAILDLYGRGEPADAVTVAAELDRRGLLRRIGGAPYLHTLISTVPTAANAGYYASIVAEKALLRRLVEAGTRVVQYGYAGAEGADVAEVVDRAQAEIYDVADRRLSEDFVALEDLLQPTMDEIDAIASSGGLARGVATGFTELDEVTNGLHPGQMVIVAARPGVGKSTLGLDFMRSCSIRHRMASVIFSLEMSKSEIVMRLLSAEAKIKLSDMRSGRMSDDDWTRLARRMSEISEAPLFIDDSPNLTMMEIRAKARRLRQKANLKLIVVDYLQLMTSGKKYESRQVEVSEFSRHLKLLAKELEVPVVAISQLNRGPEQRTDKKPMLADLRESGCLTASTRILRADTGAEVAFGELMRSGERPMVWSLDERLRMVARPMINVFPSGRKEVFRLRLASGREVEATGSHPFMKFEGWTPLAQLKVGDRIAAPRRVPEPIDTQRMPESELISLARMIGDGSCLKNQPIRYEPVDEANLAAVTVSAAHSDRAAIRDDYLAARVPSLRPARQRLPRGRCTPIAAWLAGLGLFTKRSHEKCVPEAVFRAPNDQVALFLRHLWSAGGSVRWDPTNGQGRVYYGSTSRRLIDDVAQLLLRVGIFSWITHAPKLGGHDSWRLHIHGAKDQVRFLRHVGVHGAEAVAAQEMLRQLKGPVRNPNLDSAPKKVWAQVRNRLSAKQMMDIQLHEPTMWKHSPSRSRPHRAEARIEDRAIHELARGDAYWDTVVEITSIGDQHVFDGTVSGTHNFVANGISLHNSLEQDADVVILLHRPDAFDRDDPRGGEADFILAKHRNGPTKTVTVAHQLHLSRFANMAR
Kind of assay: DnaB intein splicing inhibitors, dose response, biochemical, cell-free fluorescence (AID 449749). It counts as functional.

Active and inactive are the calls of the source. Where only a bound is given, the exact number is not on record here.

Trypsin, sequence (P00761 whole entry): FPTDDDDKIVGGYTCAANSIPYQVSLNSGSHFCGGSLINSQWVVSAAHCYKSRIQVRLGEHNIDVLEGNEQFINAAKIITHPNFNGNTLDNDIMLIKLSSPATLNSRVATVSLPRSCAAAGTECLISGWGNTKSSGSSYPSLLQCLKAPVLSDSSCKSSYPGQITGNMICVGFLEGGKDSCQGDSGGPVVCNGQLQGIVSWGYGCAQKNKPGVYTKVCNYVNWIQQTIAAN
CAAX prenyl protease 2 (Homo sapiens, UniProt Q9Y256), sequence (Q9Y256 whole entry): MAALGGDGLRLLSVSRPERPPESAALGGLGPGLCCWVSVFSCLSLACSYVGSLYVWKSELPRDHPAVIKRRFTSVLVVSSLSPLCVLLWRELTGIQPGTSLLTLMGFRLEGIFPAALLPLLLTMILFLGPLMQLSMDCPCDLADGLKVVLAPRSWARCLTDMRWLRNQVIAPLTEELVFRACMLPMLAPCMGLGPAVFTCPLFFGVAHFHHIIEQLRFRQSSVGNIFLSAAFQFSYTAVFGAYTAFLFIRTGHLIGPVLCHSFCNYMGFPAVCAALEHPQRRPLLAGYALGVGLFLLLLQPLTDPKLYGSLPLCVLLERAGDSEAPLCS
Large T antigen, sequence (P03070 whole entry): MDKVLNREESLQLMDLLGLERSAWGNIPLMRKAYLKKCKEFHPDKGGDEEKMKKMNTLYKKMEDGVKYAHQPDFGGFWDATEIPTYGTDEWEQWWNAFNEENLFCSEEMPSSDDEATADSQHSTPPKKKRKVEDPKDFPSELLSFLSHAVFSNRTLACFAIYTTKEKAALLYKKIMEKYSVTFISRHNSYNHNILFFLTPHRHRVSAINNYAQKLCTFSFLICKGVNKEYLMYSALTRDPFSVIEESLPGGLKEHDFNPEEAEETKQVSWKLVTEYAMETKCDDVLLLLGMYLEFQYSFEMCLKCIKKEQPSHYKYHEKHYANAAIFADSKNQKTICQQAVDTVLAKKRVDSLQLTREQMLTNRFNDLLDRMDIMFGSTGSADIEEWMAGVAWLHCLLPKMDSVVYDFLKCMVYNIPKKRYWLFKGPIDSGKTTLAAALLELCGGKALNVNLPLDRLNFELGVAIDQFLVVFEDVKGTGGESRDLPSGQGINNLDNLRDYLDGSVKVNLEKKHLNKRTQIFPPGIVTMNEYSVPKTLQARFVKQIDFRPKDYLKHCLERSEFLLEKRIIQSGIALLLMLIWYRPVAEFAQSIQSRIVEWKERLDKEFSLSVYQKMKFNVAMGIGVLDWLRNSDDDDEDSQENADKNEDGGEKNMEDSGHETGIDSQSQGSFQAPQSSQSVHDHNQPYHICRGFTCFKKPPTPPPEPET
ATP-dependent molecular chaperone HSP82, sequence (C4YTQ8 whole entry): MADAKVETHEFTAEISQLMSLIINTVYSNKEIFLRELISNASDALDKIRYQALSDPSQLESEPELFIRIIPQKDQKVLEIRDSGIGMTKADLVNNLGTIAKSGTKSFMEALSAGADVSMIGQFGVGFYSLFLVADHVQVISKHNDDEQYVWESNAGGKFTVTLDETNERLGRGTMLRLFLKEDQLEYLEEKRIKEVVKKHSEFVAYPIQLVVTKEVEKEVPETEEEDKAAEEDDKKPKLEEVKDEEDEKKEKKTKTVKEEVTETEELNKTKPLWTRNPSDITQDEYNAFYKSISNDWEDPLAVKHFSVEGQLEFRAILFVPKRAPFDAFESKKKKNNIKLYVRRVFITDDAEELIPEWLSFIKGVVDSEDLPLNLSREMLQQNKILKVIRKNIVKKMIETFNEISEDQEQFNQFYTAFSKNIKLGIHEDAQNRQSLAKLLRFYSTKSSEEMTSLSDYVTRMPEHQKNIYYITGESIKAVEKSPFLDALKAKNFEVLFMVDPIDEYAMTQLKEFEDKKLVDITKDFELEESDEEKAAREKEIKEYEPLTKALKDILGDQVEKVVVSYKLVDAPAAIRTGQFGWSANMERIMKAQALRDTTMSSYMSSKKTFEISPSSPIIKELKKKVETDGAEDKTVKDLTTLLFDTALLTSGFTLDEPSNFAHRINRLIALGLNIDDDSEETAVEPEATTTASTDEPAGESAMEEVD
Serine/threonine-protein phosphatase, sequence (B9W6M3 whole entry): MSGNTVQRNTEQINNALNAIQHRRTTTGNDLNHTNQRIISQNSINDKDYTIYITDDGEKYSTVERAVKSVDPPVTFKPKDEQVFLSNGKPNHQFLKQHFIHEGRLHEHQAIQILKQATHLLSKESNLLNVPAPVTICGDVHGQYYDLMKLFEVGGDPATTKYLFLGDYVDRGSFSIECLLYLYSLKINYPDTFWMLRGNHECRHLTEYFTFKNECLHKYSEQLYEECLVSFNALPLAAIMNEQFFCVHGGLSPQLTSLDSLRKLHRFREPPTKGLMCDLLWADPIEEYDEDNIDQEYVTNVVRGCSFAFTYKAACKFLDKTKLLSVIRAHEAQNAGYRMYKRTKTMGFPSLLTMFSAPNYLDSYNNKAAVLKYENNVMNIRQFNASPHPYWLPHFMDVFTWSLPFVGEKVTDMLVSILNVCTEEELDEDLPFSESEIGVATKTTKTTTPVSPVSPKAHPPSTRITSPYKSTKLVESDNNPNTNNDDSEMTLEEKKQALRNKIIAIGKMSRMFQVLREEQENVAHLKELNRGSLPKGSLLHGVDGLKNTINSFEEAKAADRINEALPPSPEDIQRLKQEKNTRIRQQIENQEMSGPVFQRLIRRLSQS

Turning to `COc1ccc(C2C3=C(O)CC(C)(C)CC3=Nc3[nH]nc(C)c32)cc1` (stereo unspecified), the AC50 on Trypsin is > 100 µM (inactive); at CAAX prenyl protease 2 [1], 13.5 µM (active).

For the compound `Cc1c(OCC(=O)NCC(O)c2ccccc2)ccc2c(-c3ccccc3)cc(=O)oc12` (stereo unspecified), the EC50 in assay [2] was > 160 µM (inactive); in assay [3] it was 80.8 µM (active); in [4], 0.699 µM (active); in [5], > 180 µM (inactive).

Consider `O=c1oc2cc(Cl)ccc2n1CSc1nc2ccccc2s1`, for which the EC50 in assay [6] is 24.1 µM (active); in assay [7], 24.4 µM (active); in the assay with H4 it was 50.8 µM (active). For the same compound, the AC50 with HeLa is 216 µM (active).

For `O=C(CNC(=O)c1cc(O)nc2ccccc12)Nc1ccc(F)c(F)c1`, the IC50 (in the assay with HEK293 [8]; in assay [9]) was > 67.5 µM (inactive) in each case.

As to `Cc1oc2c(CN3CCOCC3)c(O)ccc2c(=O)c1-c1ccccc1`, the AC50 was 9.64 µM (active) on Trypsin, 10.3 µM (active) on CAAX prenyl protease 2 [1] and 11 µM (active) on CAAX prenyl protease 2 [10].

Regarding `O=C(CCl)Nc1ccc(N2CCCCCC2)cc1`, the EC50 was 7.62 µM (active) at Protein RecA, > 59.7 µM (inactive) in the assay on HEK293 [11] and > 59.7 µM (inactive) in the assay on HEK293 [12]. On Large T antigen, the IC50 was 18.9 µM (active). In addition, the half-maximal activity concentration (AC50) in [13] is 14.3 µM (active).

With `O=c1c2ccccc2oc2cc(-c3ccc4cc[nH]c4c3)ccc12`, the AC50 in the assay on HeLa was 53.5 µM (active).

Values taken from ChEMBL document CHEMBL1201862, “PubChem BioAssay data set” (2004).
